This note sets out measurements from PubChem BioAssay AID1963846 (Molecular Pharmacology Branch, DTP, NCI, 2024).

Where “and” joins values, the source holds several entries; their conditions need not be identical. Equal entries are not always repeated.

By viability, T/C is commonly meant the ratio of treated to control. One may read the IC50 as the concentration needed to halve the response being measured.

This test deals with 454973-116-R2-J3-PDC complex spheroid viability. The experiment in a line: Anticancer human tumor 454973-116-R2-J3-PDC patient-derived pancreatic carcinoma cell line growth inhibition [POLQ]. The note with it: for viability, T/C: stronger effect = lower value. As to the method: Multicellular complex tumor spheroid response to Polymerase (POL) inhibitors (novobiocin, ART-558, RP6685) in combination with a variety of drugs and investigational agents in selected tumor cell lines
The POL inhibitors (novobiocin, ART-558, and RP6685) were evaluated both individually and in combination with standard of care and investigational anticancer small molecules within a complex spheroid model of solid tumors. . Complex spheroids include a stromal component modeled by human endothelial cells (HUVEC) and fibroblasts modeled by human mesenchymal stem cells (MSCs). The concentration ranges selected for each drug and investigational agent were based upon clinically achievable concentrations if the clinical Cmax of the agent was known.
Compounds. The drugs and investigational agents: novobiocin (NSC847541), ART-558 (NSC835418), RP-6685 (NSC848927), peposertib (NSC802822), ceralasertib (NSC780249), elimusertib (NSC800525), camonsertib (NSC841442), AZD-1390 (NSC803789), olaparib (NSC753686), talazoparib (NSC767125), rucaparib (NSC756644), sotorasib (NSC818433), MRTX-1133 (NSC836407), SN-38 (NSC673596), topotecan (NSC609699), epotoside (NSC141540), doxorubicin (NSC123127), gemcitabine (NSC613327), 5-fluorouracil (NSC19893), paclitaxel (NSC125973), vemurafenib (NSC761431), MSA-2 (NSC828583), SN-011 (NSC837082), adavosertib (NSC754352), prexasertib (NSC758257), carboplatin (NSC241240) and oxaliplatin (NSC266046), were obtained from the National Cancer Institute (NCI) Developmental Therapeutics Program Chemical Repository (21). The FDA-approved anticancer drug set is available from the Developmental Therapeutics Program at https://dtp.cancer.gov/organization/dscb/obtaining/. […] The stock solutions were prepared in dimethyl sulfoxide (DMSO, Sigma-Aldrich, St. Louis, MO, cat. D2650), except for the platinum compounds which were prepared in saline (Quality Biological, Gaithersburg, MD, cat. 114-055-101), at 800-fold the tested concentration and stored at -70 degrees C prior to their use. All drugs and investigational agents were tested over a range starting from a high concentration at or near the clinical Cmax and decreasing in half-log increments. If the clinical Cmax for an agent had not been determined, the highest concentration tested was 10 microM, except for SN-38, which was tested at a high concentration of 1 microM.
Cell Culture. All cells were maintained in an incubator at 37 degrees C and 5% CO2 with 95% humidity. The PDC lines were cultured according to standard operating procedures established by the NCI PDMR (https://pdmr.cancer.gov). Table 3 of the manuscript, lists the cell lines along with the number of the three cell types plated to form the mct-spheroids and media for tumor cell growth. After thawing, all PDC lines, except 997537-175-T-J1-PDC and 415267-285-R-J2-PDC, were cultured in Matrigel-coated flasks prepared with a working solution of 1X Ham's F-12 nutrient mix, without supplementation (Thermo Fisher Scientific, cat. 11765054), 100 U/mL penicillin-streptomycin (Thermo Fisher Scientific, cat. 15140122), and 2.5% Matrigel (Corning Inc., Corning, NY, cat. 354248) for the first three passages. The two PDC lines 997537-175-T-J1-PDC and 415267-285-R-J2-PDC were cultured on uncoated flasks. The 857933-349-R-J2-PDC line was cultured in 6C/Colon 1B media containing advanced DMEM/F-12 (Thermo Fisher Scientific, cat. 12634028), 10 mM HEPES (Thermo Fisher Scientific, cat. 15630080), 1X GlutaMAX supplement (Thermo Fisher Scientific, cat. 35050061), 0.1 mg/mL primocin (InvivoGen, San Diego, CA, cat. ant-pm-2), 10% defined fetal bovine serum, heat inactivated (HyClone Laboratories Inc., Logan, UT, cat. SH30070.03HI), 50% L-WRN conditioned media (ATCC, cat. CRL-3276), 1.25 mM N-Acetyl-L-cysteine (Sigma-Aldrich, cat. A9165), 10 mM nicotinamide (Sigma-Aldrich, cat. N0636), 1X B-27 supplement (Thermo Fisher Scientific, cat. 17504044), 1X N-2 supplement (Thermo Fisher Scientific, cat. […]
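Also: spheroids exposed to drugs for seven days before measurement.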
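For viability, T/C in this document: percent viability relative to DMSO vehicle control wells taken as 100%.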

Take `C=CCn1c(=O)c2cnc(Nc3ccc(N4CCN(C)CC4)cc3)nc2n1-c1cccc(C(C)(C)O)n1`: the viability, T/C is, setting by setting: (compound 0.00316 µM) 108% and 106% and 102%; (compound 0.01 µM) 96.7% and 98.2% and 99.6%; (compound 0.0316 µM) 110% and 99.7% and 102%; (compound 0.1 µM) 105% and 104% and 98.3%; (compound 0.316 µM) 86.9% and 73.9% and 63.5%; (compound 1 µM) 17.3% and 10.9% and 9.18%. Also, where the note is “curve of compound”, the IC50 was 0.583 µM and 0.49 µM and 0.421 µM.
For the molecule `CC(=O)O[C@H]1C(=O)[C@@]2(C)[C@H]([C@H](OC(=O)c3ccccc3)[C@]3(O)C[C@H](OC(=O)[C@H](O)[C@@H](NC(=O)c4ccccc4)c4ccccc4)C(C)=C1C3(C)C)[C@]1(OC(C)=O)CO[C@@H]1C[C@@H]2O`, the viability, T/C by setting is: (compound 0.00949 µM) 6.41% and 6.34% and 12.2%; (compound 0.03 µM) 4.28% and 4.53% and 8.36%; (compound 0.0949 µM) 6.3% and 3.83% and 4.72%; (compound 0.3 µM) 4.7% and 3.78% and 4.01%; (compound 0.949 µM) 4.44% and 4.41% and 4.87%; (compound 3 µM) 4.64% and 4.24% and 4.62%. For the same molecule, the IC50 (curve of compound) is less than 0.00949 µM.
On to `CC1COCCN1c1cc(-c2ccnn2C)c2ccnc(-c3ccn[nH]3)c2n1` (stereo not given), for which the viability, T/C (compound 0.0316 µM) was 91.5% and 96.9% and 97.4%; the viability, T/C (compound 0.1 µM) was 75.7% and 73.8% and 55.7%; the viability, T/C (compound 0.316 µM) was 42.8% and 37.2% and 20.8%; the viability, T/C (compound 1 µM) is 20.7% and 22.5% and 12.6%; the viability, T/C (compound 3.16 µM) is 21.3% and 24.4% and 12.3%; the viability, T/C (compound 10 µM) was 25% and 30% and 17.2%. Further, where the note is “curve of compound”, the IC50 was 0.238 µM and 0.208 µM and 0.121 µM.
Take `CC1COCCN1c1cc(C2(S(C)(=N)=O)CC2)nc(-c2ccnc3[nH]ccc23)n1` (stereo not given): the viability, T/C is 112% and 105% and 108% (compound 0.0316 µM); 105% and 106% and 102% (compound 0.1 µM); 108% and 109% and 103% (compound 0.316 µM); 100% and 95.8% and 92% (compound 1 µM); 79.7% and 65.6% and 90.4% (compound 3.16 µM); 32.3% and 23.4% and 33.7% (compound 10 µM). In addition, for the setting “curve of compound”, the IC50 was 6.52 µM and 4.82 µM and 7.12 µM.
Consider `CCCS(=O)(=O)Nc1ccc(F)c(C(=O)c2c[nH]c3ncc(-c4ccc(Cl)cc4)cc23)c1F`, for which the viability, T/C is, setting by setting: (compound 0.0316 µM) 111% and 107% and 105%; (compound 0.1 µM) 107% (2×) and 110%; (compound 0.316 µM) 108% (2×) and 115%; (compound 1 µM) 109% and 111% and 104%; (compound 3.16 µM) 116% and 110% and 112%; (compound 10 µM) 33% and 37.7% and 50.1%. For the same molecule, under “curve of compound”, the IC50 is 7.77 µM and 8.19 µM and > 10 µM.
`CC[C@@]1(O)C(=O)OCc2c1cc1n(c2=O)Cc2cc3c(CN(C)C)c(O)ccc3nc2-1`: the viability, T/C by setting is: (compound 0.000316 µM) 120% and 108% and 112%; (compound 0.001 µM) 101% and 93.5% and 105%; (compound 0.00316 µM) 97% and 95.4% and 103%; (compound 0.01 µM) 81.7% and 76.8% and 84.1%; (compound 0.0316 µM) 20% and 13.8% and 24.2%; (compound 0.1 µM) 17.1% and 10.5% and 14.8%. The IC50 (curve of compound) is 0.0182 µM and 0.0163 µM and 0.0193 µM.
Turning to `CCc1c2c(nc3ccc(O)cc13)-c1cc3c(c(=O)n1C2)COC(=O)[C@]3(O)CC`, the viability, T/C reads like this: (compound 0.00316 µM) 34.1% and 23.5% and 36.2%; (compound 0.01 µM) 12.7% and 10.6% and 14.8%; (compound 0.0316 µM) 13% (2×) and 7.69%; (compound 0.1 µM) 5.61% and 3.22% and 6.06%; (compound 0.316 µM) 2.43% and 3.16% and 3.18%; (compound 1 µM) 1.57% and 1.32% and 2.53%. Where the note is “curve of compound”, the IC50 was less than 0.00316 µM.
For the molecule `CNCc1ccc(-c2[nH]c3cc(F)cc4c3c2CCNC4=O)cc1`, the viability, T/C is 103% and 105% and 99% (compound 0.0316 µM); 91.9% and 102% and 93% (compound 0.1 µM); 97% and 98.4% and 112% (compound 0.316 µM); 100% and 106% and 97.7% (compound 1 µM); 111% and 101% and 102% (compound 3.16 µM); 81.6% and 96.5% and 83.7% (compound 10 µM). Also, the IC50 (curve of compound) was more than 10 µM.
Consider `COC1C(OC(N)=O)C(O)C(Oc2ccc3c(O)c(NC(=O)c4ccc(O)c(CC=C(C)C)c4)c(=O)oc3c2C)OC1(C)C` (stereo not given), for which the viability, T/C by setting is: (compound 0.0316 µM) 106% [middle of 13 runs]; (compound 0.1 µM) 111% [middle of 13 runs]; (compound 0.316 µM) 105% [middle of 13 runs]; (compound 1 µM) 102% [middle of 13 runs]; (compound 3.16 µM) 102% [middle of 13 runs]; (compound 10 µM) 109% [middle of 13 runs]. The IC50 (compound alone, run of 10/31/2023) was more than 10 µM.
As to `COc1cc(C2c3cc4c(cc3C(OC3OC5COC(C)OC5C(O)C3O)C3COC(=O)C23)OCO4)cc(OC)c1O` (stereo not given), the viability, T/C was 102% and 100% and 103% (compound 0.0316 µM); 94.6% and 100% and 97.6% (compound 0.1 µM); 87.3% and 85.4% and 94.8% (compound 0.316 µM); 64.4% and 47.4% and 68.4% (compound 1 µM); 27% and 15.3% and 23.4% (compound 3.16 µM); 11% and 6.79% and 10.2% (compound 10 µM). Also, the IC50 (curve of compound) was 1.53 µM and 0.921 µM and 1.6 µM.
